The nature of this data set: HILIC, Waters Atlantis Premier BEH Z-HILIC, 100 × 2.1 mm, 1.7 µm, 40 °C, 0.16 mL/min, estimated dead time 1.4 min; A: water + 20 mM ammonium carbonate + 5 µM medronic acid; B: 10% water + 90% acetonitrile + 2 mM ammonium carbonate + 0.5 µM medronic acid; gradient (min/%B) 0/97 18/55 18.1/20 21.5/20 22/97 23.5/97 25.5/97. To be noted: stereoisomer not certain.

Regarding `O=C(O)CCC(=O)O` [Succinic Acid], the LC retention time was 9.71 min.

Consider `Nc1ncnc2c1ncn2C1OC(COP(=O)(O)O)C(O)C1O` (configuration not stated) [AMP], for which the LC retention time was 9.68 min.

As to `NCCCCC(N)C(=O)O` (configuration not stated) [Lysine], the LC retention time is 19.4 min.

Take `O=P(O)(O)OCC1OC(O)C(O)C(O)C1O` (configuration not stated) [Glucose-6-phosphate]: the LC retention time was 12.5 min.

In the case of `O=C(O)CCC(=O)C(=O)O` [2-Oxoglutaric acid], the LC retention time is 9.15 min.

Take `Nc1ncnc2c1ncn2C1OC(COP(=O)(O)OP(=O)(O)O)C(O)C1O` (configuration not stated) [ADP]: the LC retention time is 11.6 min.

As to `O=C(O)CC(O)(CC(=O)O)C(=O)O` [Citric acid], the LC retention time was 13.7 min.

For the molecule `OCC1OC(O)C(O)C(O)C1O` (configuration not stated) [Hexose], the LC retention time was 7.87 min.

Turning to `O=P(O)(O)OCC1OC(O)(COP(=O)(O)O)C(O)C1O` (configuration not stated) [Fructose-1,6-bisphosphate], the LC retention time was 15.5 min.

For `NC(N)=NCCCC(N)C(=O)O` (configuration not stated) [Arginine], the LC retention time is 19.2 min.

`Nc1nc2c(ncn2C2OC(COP(=O)(O)OP(=O)(O)OP(=O)(O)O)C(O)C2O)c(=O)[nH]1` (configuration not stated) [GTP]: the LC retention time was 15.7 min.

For `O=C(O)CCC(O)C(=O)O` (configuration not stated) [2-hydroxy glutaric acid], the LC retention time was 9.7 min.

For `O=C(CO)COP(=O)(O)O` [Triose phosphate], the LC retention time was 10.4 min.

For the molecule `NC(=O)C1=CN(C2OC(COP(=O)(O)OP(=O)(O)OCC3OC(n4cnc5c(N)ncnc54)C(O)C3O)C(O)C2O)C=CC1` (configuration not stated) [NADH], the LC retention time was 8.9 min.

For `O=C(O)C(CO)OP(=O)(O)O` (configuration not stated) [Phosphoglyceric acid A], the LC retention time was 12.6 min.

As for `O=C(CO)C(O)C(O)C(O)COP(=O)(O)O` (configuration not stated) [Fructose 6-phosphate], the LC retention time is 11.5 min.

For `CC(=O)NC1C(OP(=O)(O)OP(=O)(O)OCC2OC(n3ccc(=O)[nH]c3=O)C(O)C2O)OC(CO)C(O)C1O` (configuration not stated) [UDP-GlcNAc], the LC retention time was 10.1 min.

Turning to `NC(=O)c1ccc[n+](C2OC(COP(=O)(O)OP(=O)(O)OCC3OC(n4cnc5c(N)ncnc54)C(O)C3O)C(O)C2O)c1` (configuration not stated) [NAD], the LC retention time is 10.5 min.

On to `NC(=O)CCC(N)C(=O)O` (configuration not stated) [Glutamine], for which the LC retention time was 10.6 min.

On to `CC(C)CC(N)C(=O)O` (configuration not stated) [Leucine], for which the LC retention time is 6.36 min.

`Nc1ncnc2c1ncn2C1OC(CO)C(O)C1O` (configuration not stated) [Adenosine]: the LC retention time was 4.45 min.

On to `NC(=O)C1=CN(C2OC(COP(=O)(O)OP(=O)(O)OCC3OC(n4cnc5c(N)ncnc54)C(OP(=O)(O)O)C3O)C(O)C2O)C=CC1` (configuration not stated) [NADPH], for which the LC retention time is 13.8 min.

In the case of `O=C(O)CCCCC1SCC2NC(=O)NC21` (configuration not stated) [Biotin], the LC retention time is 4.62 min.

In the case of `C=C(OP(=O)(O)O)C(=O)O` [PEP], the LC retention time is 13.4 min.

As for `CCC(C)C(N)C(=O)O` (configuration not stated) [Isoleucine], the LC retention time was 6.73 min.

`O=C(O)CC(C(=O)O)C(O)C(=O)O` (configuration not stated) [Isocitric acid]: the LC retention time is 13.6 min.

Regarding `CC(=O)SCCNC(=O)CCNC(=O)C(O)C(C)(C)COP(=O)(O)OP(=O)(O)OCC1OC(n2cnc3c(N)ncnc32)C(O)C1OP(=O)(O)O` (configuration not stated) [Acetyl-CoA], the LC retention time was 10.4 min.

As for `CCC(=O)OC(CC(=O)[O-])C[N+](C)(C)C` (configuration not stated) [carnitine-C3], the LC retention time was 6.89 min.

In the case of `O=C1CC(C(=O)O)NC(=O)N1` (configuration not stated) [dihydroorotic acid], the LC retention time was 4.6 min.

As for `Cc1cc2nc3c(=O)[nH]c(=O)nc-3n(CC(O)C(O)C(O)COP(=O)(O)OP(=O)(O)OCC3OC(n4cnc5c(N)ncnc54)C(O)C3O)c2cc1C` (configuration not stated) [FAD], the LC retention time is 7.63 min.

`Nc1ncnc2c1ncn2C1OC(COP(=O)(O)OP(=O)(O)OP(=O)(O)O)C(O)C1O` (configuration not stated) [ATP]: the LC retention time is 13.3 min.

With `NC(=O)c1ccc[n+](C2OC(COP(=O)(O)OP(=O)(O)OCC3OC(n4cnc5c(N)ncnc54)C(OP(=O)(O)O)C3O)C(O)C2O)c1` (configuration not stated) [NADP], the LC retention time was 13.3 min.

Consider `CC(C)(COP(=O)(O)OP(=O)(O)OCC1OC(n2cnc3c(N)ncnc32)C(O)C1OP(=O)(O)O)C(O)C(=O)NCCC(=O)NCCS` (configuration not stated) [CoenzymeA], for which the LC retention time is 12 min.

As for `CC(O)C(=O)O` (configuration not stated) [Lactic Acid], the LC retention time is 3.29 min.

For the molecule `O=P(O)(O)OCC(O)CO` (configuration not stated) [Glycerol-3-phosphate], the LC retention time was 10.6 min.

Turning to `NC(CCC(=O)O)C(=O)O` (configuration not stated) [Glutamic acid], the LC retention time is 9.93 min.

With `C[N+](C)(C)CC(O)CC(=O)[O-]` (configuration not stated) [Carnitine], the LC retention time is 10.1 min.

Values taken from the RepoRT retention time repository.
